According to BindingDB's records for doi:10.1016/j.bmcl.2005.11.067 (Merck Sharp and Dohme Research Laboratories, 2006):

Target: T1, Alpha-1A/Alpha-1B/Alpha-1D adrenergic receptor (Rattus norvegicus, UniProt P15823+P23944+P43140)
T1 sequence (P15823 whole entry): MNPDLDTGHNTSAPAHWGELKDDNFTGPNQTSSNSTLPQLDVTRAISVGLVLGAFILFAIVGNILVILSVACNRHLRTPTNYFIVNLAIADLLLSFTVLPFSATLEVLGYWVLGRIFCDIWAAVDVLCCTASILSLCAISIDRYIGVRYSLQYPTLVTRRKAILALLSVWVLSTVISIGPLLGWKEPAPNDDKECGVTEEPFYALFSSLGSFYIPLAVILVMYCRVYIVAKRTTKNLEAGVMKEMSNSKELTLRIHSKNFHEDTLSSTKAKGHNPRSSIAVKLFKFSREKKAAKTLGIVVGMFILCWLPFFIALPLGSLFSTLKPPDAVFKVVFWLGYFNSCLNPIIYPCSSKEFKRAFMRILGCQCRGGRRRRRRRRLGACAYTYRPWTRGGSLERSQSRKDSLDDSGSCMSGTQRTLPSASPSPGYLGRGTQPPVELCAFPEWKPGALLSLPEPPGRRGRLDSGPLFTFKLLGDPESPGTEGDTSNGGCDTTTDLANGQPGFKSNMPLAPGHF
T1 sequence (P43140 whole entry): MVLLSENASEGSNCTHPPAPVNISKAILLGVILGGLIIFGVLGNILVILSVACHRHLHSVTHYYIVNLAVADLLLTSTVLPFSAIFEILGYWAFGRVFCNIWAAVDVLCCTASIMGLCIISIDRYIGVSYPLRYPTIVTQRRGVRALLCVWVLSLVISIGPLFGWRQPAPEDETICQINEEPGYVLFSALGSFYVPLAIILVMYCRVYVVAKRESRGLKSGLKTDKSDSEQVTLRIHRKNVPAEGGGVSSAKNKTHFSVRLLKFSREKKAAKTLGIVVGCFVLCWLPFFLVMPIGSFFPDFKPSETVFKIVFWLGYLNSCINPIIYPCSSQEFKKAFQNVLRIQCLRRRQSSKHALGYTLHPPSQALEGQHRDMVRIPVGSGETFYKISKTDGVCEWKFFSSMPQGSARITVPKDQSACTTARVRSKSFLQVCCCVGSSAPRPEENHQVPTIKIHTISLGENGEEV
T1 sequence (P23944 whole entry): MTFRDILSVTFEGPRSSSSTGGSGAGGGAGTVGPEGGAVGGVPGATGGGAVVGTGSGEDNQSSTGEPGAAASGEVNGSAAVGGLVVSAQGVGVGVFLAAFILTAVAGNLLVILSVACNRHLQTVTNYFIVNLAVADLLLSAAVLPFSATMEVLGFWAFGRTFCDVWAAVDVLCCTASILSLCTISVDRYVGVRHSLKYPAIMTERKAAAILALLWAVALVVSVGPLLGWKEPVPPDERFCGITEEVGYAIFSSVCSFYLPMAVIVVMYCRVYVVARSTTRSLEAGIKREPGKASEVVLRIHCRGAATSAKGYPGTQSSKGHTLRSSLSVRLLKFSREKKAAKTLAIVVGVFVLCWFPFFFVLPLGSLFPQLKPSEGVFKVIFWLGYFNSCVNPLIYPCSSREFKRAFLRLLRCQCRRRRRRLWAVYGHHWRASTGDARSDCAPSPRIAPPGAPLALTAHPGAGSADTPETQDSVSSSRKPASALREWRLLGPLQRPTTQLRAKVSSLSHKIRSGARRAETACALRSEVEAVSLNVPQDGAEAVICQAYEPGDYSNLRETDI
Experiment: Displacement of [3H]prazosin from alpha-1 adrenergic receptor in rat cortex

| Ki | SMILES |
| --- | --- |
| 0.54 µM | CC(C)(CCCN1CCCC(c2ccccc2)C1)S(=O)(=O)c1ccccc1 (centres undefined) |
| > 4 µM | CC(C)(CCCN1CCCC(c2cnco2)C1)S(=O)(=O)c1ccccc1 (centres undefined) |
| > 4 µM | CC(C)(CCCN1CCCC(C(F)(F)F)C1)S(=O)(=O)c1ccccc1 (centres undefined) |
| > 4 µM | CCOC(=O)[C@@H]1CCCN(CCCC(C)(C)S(=O)(=O)c2ccccc2)C1 |
